Read-outs that look alike come from different tables or passages of the source.
Key:
[1] = Stability of analytes in rat plasma (QC samples) under storage conditions; conditions: n = 5; for Stability, Room temperature for 4 h, Mean: 25°C; for Stability, Three freeze-thaw cycles, Mean: −20°C to 25°C
Description: QC samples at three levels using five replicates were used to evaluate the stability under the following conditions: 4 h at room temperature (25°C), 24 h in autosampler (4°C), and three freeze-thaw cycles (−20°C to 25°C).

[2] = Pharmacokinetic study of 5 compounds in rat plasma after oral administration of Zuogui Pill extract (HPLC-MS/MS, noncompartmental analysis); format: in vivo, Female Sprague-Dawley rats; conditions: oral Zuogui Pill extract 1.5 mL/100 g; for Cmax / Tmax / half-life / CL/F / MRT last / MRT inf: female, Sprague-Dawley, rat, po, 1.5 mL/100 g; for Cmax / Tmax / half-life / AUC0–t / AUC0–∞: n = 6; for CL/F: n = 6, read-out: CL_F_obs (converted); for MRT last: n = 6, read-out: MRT0–t; for MRT inf: n = 6, read-out: MRT0–∞
Description: Female Sprague-Dawley rats (180–220 g) were purchased from Shanghai Laboratory Animal Centre (Shanghai, China). The rats were maintained in a standard environment (22 ± 1°C, 60 ± 10% relative humidity, and a 12 h light/dark cycle) for one week to acclimate and fed water and food ad libitum. Twenty-four rats were divided randomly into […] and treated through ovary enucleation to establish the model of osteoporosis. Ten weeks after operation, osteoporosis models of kidney-yang-deficiency and kidney-yin-deficiency were established by intramuscular injection of hydrocortisone (25 mg/kg) and intragastric administration of thyroxine suspension (160 mg/kg) for 10 days, respectively. The femur of two rats from each group was then stained with hematoxylin and eosin (H&E) to assess histopathological change. Also, the validation of osteoporosis kidney-yang-deficiency and kidney-yin-deficiency models was judged by detecting the level of cyclic adenosine monophosphate (cAMP) and cyclic guanosine monophosphate (cGMP) in rat plasma. Laboratory Animal Management and Ethics Committee of Zhejiang Chinese Medical University approved all animal treatments (ZSLL-2014-48).
One hundred microliters of plasma was mixed with 100 μL of the IS solution, followed by 700 μL of methanol:acetonitrile (1 : 1). After 2 min of vortex mixing, the mixture was spun for 15 min at 8000 rpm and 4°C. The supernatants were collected and dried in a high-purity N2 environment. The residues were redissolved in 100 μL methanol and centrifuged for 15 min at 13000 rpm and 4°C. Finally, an aliquot of 10 μL supernatants was used to conduct the analysis.
Four groups of rats were orally administered with Zuogui Pill extract at a dose of 1.5 mL/100 g. Then, 0.3 mL blood samples were collected from orbital veins at 0, 0.08, 0.17, 0.25, 0.5, 1, 2, 4, 6, 8, 12, and 24 h after administration, placed in an anticoagulant tube, and centrifuged for 15 min at 5000 rpm and 4°C. The plasma was prepared and stored at −20°C until analysis.
Phoenix WinNonlin 6.4 software was used to estimate pharmacokinetic parameters using noncompartmental analysis. Furthermore, SPSS 26 software was used to compute comparisons of the pharmacokinetic data among the four groups according to a one-way ANOVA. The results are presented as mean ± SD.

[3] = high QC (800, 16000, 3200, 400, 40 ng/mL in the same order)
[4] = low QC (2, 40, 8, 1, 0.1 ng/mL for chlorogenic acid, loganin, morroniside, aucubin, protocatechuic aldehyde)
[5] = middle QC (40, 800, 160, 20, 2 ng/mL in the same order)
[6] = osteoporosis rats (ovariectomized)
[7] = osteoporotic rats with kidney-yang-deficiency
[8] = osteoporotic rats with kidney-yin-deficiency

## COC(=O)C1=CO[C@@H](O[C@@H]2O[C@H](CO)[C@@H](O)[C@H](O)[C@H]2O)[C@@H]2[C@@H](C)[C@@H](O)C[C@H]12 [Loganin, loganin]
[1]; [3]
  Stability, Room temperature for 4 h, Mean: 85.6%
  Stability, Autosampler at 4°C for 24 h, Mean: 84.4%
  Stability, Three freeze-thaw cycles, Mean: 92.4%
[1]; [4]
  Stability, Room temperature for 4 h, Mean: 88.3%
  Stability, Autosampler at 4°C for 24 h, Mean: 94.6%
  Stability, Three freeze-thaw cycles, Mean: 86.4%
[1]; [5]
  Stability, Room temperature for 4 h, Mean: 87.4%
  Stability, Autosampler at 4°C for 24 h, Mean: 85.8%
  Stability, Three freeze-thaw cycles, Mean: 89.5%
[2]; normal rats
  Cmax: 13500 ± 2030 ng/mL
  Tmax: 0.25 h
  half-life: 4.51 ± 0.45 h
  CL/F: 6.03 mL/min/kg
  MRT last: 4.58 ± 0.47 h
  MRT inf: 5.1 ± 0.41 h
  AUC0–t: 20134.29 ± 3958.79 h∗ng/mL
  AUC0–∞: 20523.97 ± 3947.05 h∗ng/mL
[2]; [6]
  Cmax: 8380 ± 1120 ng/mL
  Tmax: 0.25 h
  half-life: 2.74 ± 0.96 h
  CL/F: 7.67 mL/min/kg
  MRT last: 4.91 ± 1.29 h
  MRT inf: 5.02 ± 1.34 h
  AUC0–t: 17912.12 ± 6898.16 h∗ng/mL
  AUC0–∞: 17998.56 ± 6945.75 h∗ng/mL
[2]; [7]
  Cmax: 14.7 ± 1.38 ng/mL
  Tmax: 0.21 ± 0.05 h
  half-life: 5.62 ± 1.63 h
  CL/F: 4280 mL/min/kg
  MRT last: 5.5 ± 0.67 h
  MRT inf: 6.62 ± 0.49 h
[2]; [8]
  Cmax: 16000 ± 2790 ng/mL
  Tmax: 0.25 h
  half-life: 3.75 ± 0.7 h
  CL/F: 2.94 mL/min/kg
  MRT last: 6.51 ± 0.91 h
  MRT inf: 6.92 ± 0.98 h
  AUC0–t: 41028.61 ± 6356.26^∗∗ h∗ng/mL
  AUC0–∞: 41727.10 ± 6203.34^∗∗ h∗ng/mL

## OCC1=C[C@@H](O)[C@@H]2C=CO[C@@H](O[C@@H]3O[C@H](CO)[C@@H](O)[C@H](O)[C@H]3O)[C@H]12 [Aucubin, aucubin]
[1]; [3]
  Stability, Room temperature for 4 h, Mean: 92.8%
  Stability, Autosampler at 4°C for 24 h, Mean: 90.2%
  Stability, Three freeze-thaw cycles, Mean: 89.1%
[1]; [4]
  Stability, Room temperature for 4 h, Mean: 89.8%
  Stability, Autosampler at 4°C for 24 h, Mean: 88.6%
  Stability, Three freeze-thaw cycles, Mean: 84.2%
[1]; [5]
  Stability, Room temperature for 4 h, Mean: 91.3%
  Stability, Autosampler at 4°C for 24 h, Mean: 92.5%
  Stability, Three freeze-thaw cycles, Mean: 86.9%
[2]; normal rats
  Cmax: 84.4 ± 32.2 ng/mL
  Tmax: 0.38 ± 0.14 h
  half-life: 5.97 ± 2.89 h
  CL/F: 22.6 mL/min/kg
  MRT last: 5.38 ± 2.01 h
  MRT inf: 8.58 ± 2.71 h
  AUC0–t: 170.50 ± 64.82 h∗ng/mL
  AUC0–∞: 204.69 ± 68.61 h∗ng/mL
[2]; [6]
  Cmax: 103 ± 23.6 ng/mL
  Tmax: 0.17 h
  half-life: 3.67 ± 0.78 h
  CL/F: 26.5 mL/min/kg
  MRT last: 3.06 ± 0.12 h
  MRT inf: 5.62 ± 1.09 h
  AUC0–t: 116.40 ± 11.00 h∗ng/mL
  AUC0–∞: 155.64 ± 24.54 h∗ng/mL
[2]; [7]
  Cmax: 96 ± 24.2 ng/mL
  Tmax: 0.25 h
  half-life: 7.4 ± 1.68 h
  CL/F: 38.8 mL/min/kg
  MRT last: 2.95 ± 0.38 h
  MRT inf: 11.7 ± 1.31 h
  AUC0–t: 48.33 ± 14.05^∗∗ h∗ng/mL
  AUC0–∞: 111.33 ± 29.94 h∗ng/mL
[2]; [8]
  Cmax: 181 ± 30.7 ng/mL
  Tmax: 0.25 h
  half-life: 8.68 ± 2.92 h
  CL/F: 16 mL/min/kg
  MRT last: 7.32 ± 1.92 h
  MRT inf: 14.1 ± 5.85 h
  AUC0–t: 201.40 ± 32.43^∗∗ h∗ng/mL
  AUC0–∞: 272.67 ± 70.63^∗∗ h∗ng/mL

Reference: PMC10045483, “Comparative Pharmacokinetic Study of 5 Active Ingredients after Oral Administration of Zuogui Pill in Osteoporotic Rats with Different Syndrome Types” (International Journal of Analytical Chemistry, 2023)
